Patent US8137707B2, “Method of obtaining an active ingredient increasing cutaneous cell and tissue longevity, active ingredients and compositions” (Societe Industrielle Limousine d'Application Biologique, …, priority 2006, dated 2012)

Test system: rat-tail collagen
Assay: Glycation of collagen induced by glycoaldehyde, fluorescence of glycation products
Assay type: biochemical
Settings: 32 μl of aminoguanidine at 3.39 M, 14 days at 37° C.
Procedure: The study is carried out according to the operating protocol that follows.
On D0, samples to be tested are prepared in sterile hemolysis tubes: • a non-glycated collagen reference, containing • 1 ml of 3 mg/ml rat-tail collagen, • a glycated collagen reference, containing • 1 ml of 3 mg/ml rat-tail collagen, and • 0.3 ml of a glycoaldehyde solution at 143 mM, inducing the glycation reaction, • a positive reference, containing • 1 ml of 3 mg/ml of rat-tail collagen, • 0.3 ml of a solution of glycoaldehyde at 143 mM, inducing the glycation reaction, and • 32 μl of aminoguanidine at 3.39 M, inhibiting the glycation reaction. • product tests, containing • 1 ml of 3 mg/ml rat-tail collagen, • 0.3 ml of a solution of glycoaldehyde at 143 mM, inducing the glycation reaction, and • the active principle according to the invention at 1%, 2.5% and 5%.
The samples are incubated at 37° C. protected from light for 14 days.
On D14, the fluorescence emitted by the glycation products formed is measured with the aid of a spectrofluorimeter.

Structure (SMILES): N=C(N)NN [Positive reference, aminoguanidine]
- Fluorescence Value (glycated collagen reference 449): 189
- Effectiveness (%) (versus glycated collagen reference): −58%
